Reference: a compilation of properties of binary mixtures (doi:10.1021/je300932n)

Experiment: xn = mol fraction of the nth substance listed
Conditions: 101 kPa

CCCC[n+]1ccn(C)c1.N[C@@H](CC(=O)O)C(=O)[O-] + CO
electrical conductivity [S/m]
Conditions | 298.15 K | 303.15 K | 308.15 K | 318.15 K
x1 = 0.0099 | 0.82 | 0.89 | 1 | 1.03
x2 = 0.1001 | 0.087 | 0.101 | 0.124 | 0.205
x2 = 0.1999 | 0.093 | – | 0.155 | –
x2 = 0.2999 | – | 0.148 | 0.202 | 0.233
x2 = 0.398 | 0.125 | 0.185 | – | 0.26
x2 = 0.5015 | – | 0.231 | 0.263 | –
x2 = 0.5949 | 0.218 | – | 0.336 | 0.429
x2 = 0.6969 | 0.314 | – | – | 0.64
x2 = 0.7957 | – | 0.75 | 0.83 | –
x2 = 0.8988 | – | 1.22 | 1.28 | –
x2 = 0.9214 | 1.27 | 1.32 | – | 1.48
x2 = 0.9501 | 1.36 | 1.39 | 1.44 | 1.57
x2 = 0.975 | 1.23 | 1.25 | – | 1.39
